Results from patent publication US20010012832A1, “Method of hormone treatment for patients with symptoms consistent with multiple sclerosis” (priority 1999, published 2001).

Legend:
[1] = test system: IGF-I levels; assay: Peak IGF-I levels in males and females before and after administration; format: in vivo, human
Source text: IGF-I is directly dependent upon the secretion of HGH by the pituitary gland, so therefore there is a direct linkage between increased secretion of HGH and increased production of IGF-I. Table II presents the effects of the low dose at high frequency human growth hormone administration (low dose-high frequency) contemplated by the invention on IGF-I (somatomedin C) blood levels. FIGS. 8 and 9 present the peak IGF-I levels in males and females, respectively, before and after administration of […]. FIGS. 8 and 9 show mean, minimum and maximum, and 25, 50, and 75 percentile for 204 males and 91 females, respectively.
The method of determining the level of the select group of hormones may be accomplished by a simple blood test. A patients' blood is evaluated for the hormone levels of the select group of hormones and those levels are compared to the optimal or predetermined physiological levels set forth in Table I. Based on the comparison of a patient's hormone levels with the optimal or predetermined physiological levels, a regimen is established for the patient for the replenishment of the level of deficient hormones to optimal physiological levels. It is further contemplated, that after the initial evaluation and the establishment of the regimen, a patient is monitored every 30 days, by a similar blood test, until the patient attains the optimal or predetermined physiological level, and the dosages of hormone supplementation are adjusted accordingly. Once the target levels are established, the regimen directs that the patient continue to follow the established dosage of supplemental hormones indefinitely to maintain the optimal or predetermined physiological levels. Periodic blood tests are subsequently administered to assure that the optimal or predetermined physiological levels are maintained.

[2] = test system: adult female mice having induced EAE; settings: 0.6 mg subcutaneously over a ten day period; vs placebo; cited from earlier work
[3] = test system: Somatomedin C Blood Levels; assay: Somatomedin C blood levels before and after low dose-high frequency human growth hormone administration; format: in vivo; settings: 47 patients; after vs before hGH
Source text: IGF-I is directly dependent upon the secretion of HGH by the pituitary gland, so therefore there is a direct linkage between increased secretion of HGH and increased production of IGF-I. Table II presents the effects of the low dose at high frequency human growth hormone administration (low dose-high frequency) contemplated by the invention on IGF-I (somatomedin C) blood levels. FIGS. 8 and 9 present the peak IGF-I levels in males and females, respectively, before and after administration of […]. FIGS. 8 and 9 show mean, minimum and maximum, and 25, 50, and 75 percentile for 204 males and 91 females, respectively. The method of the invention also contemplates that the HGH is administered in keeping with the way the pituitary secretes HGH naturally. The low dose-high frequency method mimics the pituitary gland. The pituitary secretes HGH 24 hours a day, with the peaks during the first two hours of sleep. The method contemplates that the patients take lower doses more frequently to try to mimic the natural rhythm of the body as much as possible. The invention contemplates that the patients take HGH injections at least twice daily. A preferred regimen calls for subcutaneous injections of doses less than 0.5 mg per day (approximately 1-3 I.U.), administered twice daily. Typical doses for this regimen range from 4 units per week to 8 units per week.

With Insulin-like Growth Factor-I [IGF-I] the “Peak IFG levels FEMALES CHANGE, 25%ile” value ([1]; 91 females) was 26, the “Peak IFG levels FEMALES CHANGE, 50%ile” value ([1]; 91 females) was 72 and the “Peak IFG levels FEMALES CHANGE, 75%ile” value ([1]; 91 females) was 128. The “Peak IFG levels FEMALES CHANGE, MAX” value ([1]; 91 females) was 231, the “Peak IFG levels FEMALES CHANGE, MEAN” value ([1]; 91 females) was 74.0 and the “Peak IFG levels FEMALES CHANGE, MEDIAN” value ([1]; 91 females) was 72. For the same substance, the “Peak IFG levels FEMALES CHANGE, MIN” value ([1]; 91 females) was −93, the “Peak IFG levels FEMALES AFTER, 25%ile” value ([1]; 91 females, before 111) was 177 and the “Peak IFG levels FEMALES AFTER, 50%ile” value ([1]; 91 females, before 164) was 240. For the same substance, the “Peak IFG levels FEMALES AFTER, 75%ile” value ([1]; 91 females, before 205) was 294, the “Peak IFG levels FEMALES AFTER, MAX” value ([1]; 91 females, before max 311) was 378 and the “Peak IFG levels FEMALES AFTER, MEAN” value ([1]; 91 females, before mean 162.2, mean 133.4 days) was 236.3. For the same substance, the “Peak IFG levels FEMALES AFTER, MEDIAN” value ([1]; 91 females, before median 154) was 240, the “Peak IFG levels FEMALES AFTER, MIN” value ([1]; 91 females, before min 41) was 52 and the “Peak IFG levels MALES CHANGE, 25%ile” value ([1]; 204 males) was 24. For the same substance, the “Peak IFG levels MALES CHANGE, 50%ile” value ([1]; 204 males) was 76, the “Peak IFG levels MALES CHANGE, 75%ile” value ([1]; 204 males) was 125 and the “Peak IFG levels MALES CHANGE, MAX” value ([1]; 204 males) was 258. For the same substance, the “Peak IFG levels MALES CHANGE, MEAN” value ([1]; 204 males) was 74.4, the “Peak IFG levels MALES CHANGE, MEDIAN” value ([1]; 204 males) was 75.5 and the “Peak IFG levels MALES AFTER, 25%ile” value ([1]; 204 males, before 147) was 217. The “Peak IFG levels MALES AFTER, 50%ile” value ([1]; 204 males, before 183) was 273, the “Peak IFG levels MALES AFTER, 75%ile” value ([1]; 204 males, before 231) was 325 and the “Peak IFG levels MALES AFTER, MAX” value ([1]; 204 males, before max 361) was 396. The “Peak IFG levels MALES AFTER, MEAN” value ([1]; 204 males, before mean 192.3, mean 118.5 days) was 266.7, the “Peak IFG levels MALES AFTER, MEDIAN” value ([1]; 204 males, before median 183) was 272.5 and the “Peak IFG levels MALES AFTER, MIN” value ([1]; 204 males, before min 21) was 63. For the same substance, the “Clinical deficits in EAE mice” value [2] was “reduced deficits” and the “Lesions in EAE mice” value [2] was “reduced numbers and sizes of inflammatory, demyelinating and demyelinated lesions”.

For human growth hormone [hGH], the “Somatomedin C Blood Levels Increase, Mean” value [3] was 61.0%.
